Columns and labels:
[1] = target: Discoidin domain-containing receptor 2 (Homo sapiens) (UniProt Q16832); test: Inhibition of human DDR2 at 100 nM using KKSRGDYMTMQIG as substrate by [gamma-33P]-ATP assay
[2] = target: Dual specificity mitogen-activated protein kinase kinase 5 (Homo sapiens) (UniProt Q13163); test: Inhibition of human MEK5 at 100 nM using ERK5 as substrate by [gamma-33P]-ATP assay
[3] = target: Serine/threonine-protein kinase Nek8 (Homo sapiens) (UniProt Q86SG6); test: Inhibition of human NEK8 at 100 nM using casein as substrate by [gamma-33P]-ATP assay
[4] = target: Calcium/calmodulin-dependent protein kinase type II subunit delta (Homo sapiens) (UniProt Q13557); test: Inhibition of human CAMK2D at 100 nM using KKLNRTLSFAEPG as substrate by [gamma-33P]-ATP assay
[5] = target: Ribosomal protein S6 kinase alpha-3 (Homo sapiens) (UniProt P51812); test: Inhibition of human RSK2 at 100 nM using KKLNRTLSVA as substrate by [gamma-33P]-ATP assay
Chain of Ribosomal protein S6 kinase alpha-3 (Homo sapiens) (P51812 whole entry): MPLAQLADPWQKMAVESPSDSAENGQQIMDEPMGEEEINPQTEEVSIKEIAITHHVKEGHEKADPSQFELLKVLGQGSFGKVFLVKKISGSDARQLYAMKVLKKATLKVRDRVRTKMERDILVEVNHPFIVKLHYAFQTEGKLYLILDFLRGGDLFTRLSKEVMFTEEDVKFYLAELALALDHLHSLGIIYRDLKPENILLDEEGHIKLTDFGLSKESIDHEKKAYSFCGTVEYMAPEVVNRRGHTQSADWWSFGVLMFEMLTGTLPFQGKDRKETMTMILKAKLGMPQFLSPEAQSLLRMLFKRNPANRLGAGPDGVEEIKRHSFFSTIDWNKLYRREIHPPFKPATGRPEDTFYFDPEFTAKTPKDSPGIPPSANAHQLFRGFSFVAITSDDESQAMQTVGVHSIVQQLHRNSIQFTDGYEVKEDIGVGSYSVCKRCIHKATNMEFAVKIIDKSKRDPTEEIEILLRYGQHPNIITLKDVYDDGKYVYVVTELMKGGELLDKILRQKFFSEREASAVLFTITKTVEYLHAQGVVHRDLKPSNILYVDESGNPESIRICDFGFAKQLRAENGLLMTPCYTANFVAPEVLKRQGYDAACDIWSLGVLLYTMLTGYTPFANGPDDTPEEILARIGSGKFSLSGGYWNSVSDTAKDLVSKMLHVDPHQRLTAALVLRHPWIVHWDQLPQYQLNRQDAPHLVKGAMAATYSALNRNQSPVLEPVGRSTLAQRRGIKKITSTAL

[6] = target: Non-receptor tyrosine-protein kinase TNK1 (Homo sapiens) (UniProt Q13470); test: Inhibition of human TNK1 at 100 nM using poly[Glu:Tyr] (4:1) as substrate by [gamma-33P]-ATP assay
Chain of Non-receptor tyrosine-protein kinase TNK1 (Homo sapiens) (Q13470 whole entry): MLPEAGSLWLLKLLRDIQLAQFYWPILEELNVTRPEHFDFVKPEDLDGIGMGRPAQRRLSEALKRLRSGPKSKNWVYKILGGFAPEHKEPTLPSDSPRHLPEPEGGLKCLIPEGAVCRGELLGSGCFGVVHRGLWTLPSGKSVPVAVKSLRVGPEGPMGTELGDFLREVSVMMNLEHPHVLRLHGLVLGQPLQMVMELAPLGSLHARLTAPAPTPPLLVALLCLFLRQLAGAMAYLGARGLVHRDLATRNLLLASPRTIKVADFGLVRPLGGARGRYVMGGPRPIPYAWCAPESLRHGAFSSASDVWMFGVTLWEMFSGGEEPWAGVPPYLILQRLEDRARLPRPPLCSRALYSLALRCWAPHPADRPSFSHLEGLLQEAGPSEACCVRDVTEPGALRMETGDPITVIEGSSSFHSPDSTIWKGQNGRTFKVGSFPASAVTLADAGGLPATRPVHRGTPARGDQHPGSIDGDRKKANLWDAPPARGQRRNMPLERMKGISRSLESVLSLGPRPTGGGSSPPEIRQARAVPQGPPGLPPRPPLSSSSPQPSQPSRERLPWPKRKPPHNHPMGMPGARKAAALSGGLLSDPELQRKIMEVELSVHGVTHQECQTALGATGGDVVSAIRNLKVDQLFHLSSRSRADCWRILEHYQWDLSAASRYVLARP

[7] = target: Tyrosine-protein kinase SYK (Homo sapiens) (UniProt P43405); test: Inhibition of human SYK at 100 nM using poly[Glu:Tyr] (4:1) as substrate by [gamma-33P]-ATP assay
[8] = target: SRSF protein kinase 2 (Homo sapiens) (UniProt P78362); test: Inhibition of human SRPK2 at 100 nM using GRSRSRSRSR as substrate by [gamma-33P]-ATP assay
L02 = test: Cytotoxicity against human LO2 cells assessed as reduction in cell viability at 0.625 to 20 uM incubated for 72 hrs by MTT assay; format: cell-based; settings: l02, 72 h
[9] = target: RAC-gamma serine/threonine-protein kinase (Homo sapiens) (UniProt Q9Y243); test: Inhibition of human AKT3 at 100 nM using KGSGSGRPRTSSFAEG as substrate by [gamma-33P]-ATP assay
Chain of RAC-gamma serine/threonine-protein kinase (Homo sapiens) (Q9Y243 whole entry): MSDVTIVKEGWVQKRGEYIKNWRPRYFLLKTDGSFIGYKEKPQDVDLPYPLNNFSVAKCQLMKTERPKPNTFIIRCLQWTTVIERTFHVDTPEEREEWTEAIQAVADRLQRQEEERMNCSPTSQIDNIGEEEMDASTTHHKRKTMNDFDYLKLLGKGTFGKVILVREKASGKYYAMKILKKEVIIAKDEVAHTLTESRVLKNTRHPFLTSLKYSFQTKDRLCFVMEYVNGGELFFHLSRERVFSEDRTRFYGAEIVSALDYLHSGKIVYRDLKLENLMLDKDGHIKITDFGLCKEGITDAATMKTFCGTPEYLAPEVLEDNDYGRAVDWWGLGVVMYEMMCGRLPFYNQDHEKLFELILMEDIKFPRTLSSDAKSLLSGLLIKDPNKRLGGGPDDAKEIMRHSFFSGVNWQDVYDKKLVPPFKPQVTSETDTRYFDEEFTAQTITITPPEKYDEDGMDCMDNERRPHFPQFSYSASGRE

[10] = target: Cyclin-C/Cyclin-dependent kinase 19 (Homo sapiens) (UniProt Q9BWU1+P24863); test: Inhibition of human CDK19/cyclin-C at 100 nM using RB protein as substrate by [gamma-33P]-ATP assay; format: protein-complex assay
[11] = target: MAP/microtubule affinity-regulating kinase 3 (Homo sapiens) (UniProt P27448); test: Inhibition of human MARK3 at 100 nM using KKKVSRSGLYRSPSMPENLNRPR as substrate by [gamma-33P]-ATP assay
Chain of MAP/microtubule affinity-regulating kinase 3 (Homo sapiens) (P27448 whole entry, looked up): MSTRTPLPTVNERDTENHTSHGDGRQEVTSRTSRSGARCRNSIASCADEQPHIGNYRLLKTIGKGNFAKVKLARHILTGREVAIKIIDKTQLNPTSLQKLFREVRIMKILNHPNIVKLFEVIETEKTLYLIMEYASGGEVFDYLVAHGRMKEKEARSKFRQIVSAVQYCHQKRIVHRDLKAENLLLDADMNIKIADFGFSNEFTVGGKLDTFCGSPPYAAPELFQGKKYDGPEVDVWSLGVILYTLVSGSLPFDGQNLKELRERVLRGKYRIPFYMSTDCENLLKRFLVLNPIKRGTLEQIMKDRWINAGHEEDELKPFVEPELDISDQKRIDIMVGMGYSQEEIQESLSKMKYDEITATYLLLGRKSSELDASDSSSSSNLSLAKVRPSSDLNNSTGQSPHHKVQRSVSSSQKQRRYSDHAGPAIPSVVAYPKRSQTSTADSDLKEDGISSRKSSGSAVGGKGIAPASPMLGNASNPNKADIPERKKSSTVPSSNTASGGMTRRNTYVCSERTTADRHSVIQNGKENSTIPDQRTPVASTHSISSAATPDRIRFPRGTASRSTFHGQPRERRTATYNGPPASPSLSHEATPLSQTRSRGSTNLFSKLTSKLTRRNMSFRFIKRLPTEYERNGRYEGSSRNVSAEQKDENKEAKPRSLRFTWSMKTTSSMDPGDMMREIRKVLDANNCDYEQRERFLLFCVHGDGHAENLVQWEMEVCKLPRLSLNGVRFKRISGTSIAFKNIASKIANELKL

[12] = target: Dual specificity mitogen-activated protein kinase kinase 7 (Homo sapiens) (UniProt O14733); test: Inhibition of human MKK7 at 100 nM using JNK as substrate by [gamma-33P]-ATP assay
Chain of Dual specificity mitogen-activated protein kinase kinase 7 (Homo sapiens) (O14733 whole entry): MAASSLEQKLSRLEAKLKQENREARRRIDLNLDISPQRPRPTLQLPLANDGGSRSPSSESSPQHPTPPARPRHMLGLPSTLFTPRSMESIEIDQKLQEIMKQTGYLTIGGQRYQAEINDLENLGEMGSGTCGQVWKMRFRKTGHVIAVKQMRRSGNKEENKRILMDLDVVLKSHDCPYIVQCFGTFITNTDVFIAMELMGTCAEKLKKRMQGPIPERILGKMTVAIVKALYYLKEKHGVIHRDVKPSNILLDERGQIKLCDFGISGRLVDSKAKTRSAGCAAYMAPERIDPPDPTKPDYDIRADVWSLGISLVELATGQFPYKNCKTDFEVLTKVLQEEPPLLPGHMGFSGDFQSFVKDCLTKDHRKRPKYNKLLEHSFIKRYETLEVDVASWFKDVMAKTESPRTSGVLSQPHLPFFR

[13] = target: Mitogen-activated protein kinase kinase kinase 7 (Homo sapiens) (UniProt O43318); test: Inhibition of human TAK1 at 100 nM using casein as substrate by [gamma-33P]-ATP assay
[14] = target: Interleukin-1 receptor-associated kinase 1 (Homo sapiens) (UniProt P51617); test: Inhibition of human IRAK1 at 100 nM using MBP as substrate by [gamma-33P]-ATP assay
Chain of Interleukin-1 receptor-associated kinase 1 (Homo sapiens) (P51617 whole entry, looked up): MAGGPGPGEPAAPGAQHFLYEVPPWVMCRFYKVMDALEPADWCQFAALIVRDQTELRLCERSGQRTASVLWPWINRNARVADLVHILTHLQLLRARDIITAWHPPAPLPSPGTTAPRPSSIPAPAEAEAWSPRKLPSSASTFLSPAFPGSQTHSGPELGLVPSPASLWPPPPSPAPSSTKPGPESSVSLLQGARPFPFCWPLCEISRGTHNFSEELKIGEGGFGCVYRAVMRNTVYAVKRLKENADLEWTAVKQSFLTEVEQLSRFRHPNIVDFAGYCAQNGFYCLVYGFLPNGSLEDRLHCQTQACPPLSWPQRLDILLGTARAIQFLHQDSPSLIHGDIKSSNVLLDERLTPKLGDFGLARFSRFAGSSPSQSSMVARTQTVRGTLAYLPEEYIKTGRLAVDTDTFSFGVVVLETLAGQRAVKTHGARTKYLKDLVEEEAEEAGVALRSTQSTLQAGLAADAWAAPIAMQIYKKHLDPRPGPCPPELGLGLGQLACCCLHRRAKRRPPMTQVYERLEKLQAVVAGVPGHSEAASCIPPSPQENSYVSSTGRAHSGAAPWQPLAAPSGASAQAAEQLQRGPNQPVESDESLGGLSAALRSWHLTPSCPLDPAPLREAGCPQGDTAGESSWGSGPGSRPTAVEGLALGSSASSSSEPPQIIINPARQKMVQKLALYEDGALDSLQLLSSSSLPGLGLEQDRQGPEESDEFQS

[15] = target: Serine/threonine-protein kinase BRSK1 (Homo sapiens) (UniProt Q8TDC3); test: Inhibition of human BRSK1 at 100 nM using KKKVSRSGLYRSPSMPENLNRPR as substrate by [gamma-33P]-ATP assay
[16] = target: STE20/SPS1-related proline-alanine-rich protein kinase (Homo sapiens) (UniProt Q9UEW8); test: Inhibition of human STK39 at 100 nM using MBP as substrate by [gamma-33P]-ATP assay
[17] = target: Serine/threonine-protein kinase 4 (Homo sapiens) (UniProt Q13043); test: Inhibition of human MST1 at 100 nM using KKSRGDYMTMQIG as substrate by [gamma-33P]-ATP assay
[18] = target: CDK18/Cyclin Y (Homo sapiens) (UniProt Q07002+Q8ND76); test: Inhibition of human CDK18/cyclin-Y at 100 nM using RB protein as substrate by [gamma-33P]-ATP assay; format: protein-complex assay
[19] = target: cGMP-dependent protein kinase 1 (Homo sapiens) (UniProt Q13976); test: Inhibition of human PKG1beta at 100 nM using LRRASLG as substrate by [gamma-33P]-ATP assay
[20] = Toxicity in BALB/c mouse xenografted with human A549 cells assessed as reduction in body weight at 20 to 40 mg/kg, ig administered for 30 days; format: organism-based; settings: in vivo, po, 720 h
[21] = target: Serine/threonine-protein kinase Nek5 (Homo sapiens) (UniProt Q6P3R8); test: Inhibition of human NEK5 at 100 nM using MBP as substrate by [gamma-33P]-ATP assay
[22] = target: Protein kinase C epsilon type (Homo sapiens) (UniProt Q02156); test: Inhibition of human PKCepsilon at 100 nM using ERMRPRKRQGSVRRRV as substrate by [gamma-33P]-ATP assay
[23] = target: Testis-specific serine/threonine-protein kinase 6 (Homo sapiens) (UniProt Q9BXA6); test: Inhibition of human SSTK at 100 nM using MBP as substrate by [gamma-33P]-ATP assay
[24] = target: Serine/threonine-protein kinase Sgk2 (Homo sapiens) (UniProt Q9HBY8); test: Inhibition of human SGK2 at 100 nM using KGSGSGRPRTSSFAEG as substrate by [gamma-33P]-ATP assay
[25] = target: CDK2/Cyclin-E2 (Homo sapiens) (UniProt P24941+O96020); test: Inhibition of human CDK2/cyclin-E2 at 100 nM using histone H1 as substrate by [gamma-33P]-ATP assay; format: protein-complex assay
[26] = target: BDNF/NT-3 growth factors receptor (Homo sapiens) (UniProt Q16620); test: Inhibition of human TRKB at 100 nM using poly[Glu:Tyr] (4:1) as substrate by [gamma-33P]-ATP assay
Chain of BDNF/NT-3 growth factors receptor (Homo sapiens) (Q16620 32-822 limits assumed): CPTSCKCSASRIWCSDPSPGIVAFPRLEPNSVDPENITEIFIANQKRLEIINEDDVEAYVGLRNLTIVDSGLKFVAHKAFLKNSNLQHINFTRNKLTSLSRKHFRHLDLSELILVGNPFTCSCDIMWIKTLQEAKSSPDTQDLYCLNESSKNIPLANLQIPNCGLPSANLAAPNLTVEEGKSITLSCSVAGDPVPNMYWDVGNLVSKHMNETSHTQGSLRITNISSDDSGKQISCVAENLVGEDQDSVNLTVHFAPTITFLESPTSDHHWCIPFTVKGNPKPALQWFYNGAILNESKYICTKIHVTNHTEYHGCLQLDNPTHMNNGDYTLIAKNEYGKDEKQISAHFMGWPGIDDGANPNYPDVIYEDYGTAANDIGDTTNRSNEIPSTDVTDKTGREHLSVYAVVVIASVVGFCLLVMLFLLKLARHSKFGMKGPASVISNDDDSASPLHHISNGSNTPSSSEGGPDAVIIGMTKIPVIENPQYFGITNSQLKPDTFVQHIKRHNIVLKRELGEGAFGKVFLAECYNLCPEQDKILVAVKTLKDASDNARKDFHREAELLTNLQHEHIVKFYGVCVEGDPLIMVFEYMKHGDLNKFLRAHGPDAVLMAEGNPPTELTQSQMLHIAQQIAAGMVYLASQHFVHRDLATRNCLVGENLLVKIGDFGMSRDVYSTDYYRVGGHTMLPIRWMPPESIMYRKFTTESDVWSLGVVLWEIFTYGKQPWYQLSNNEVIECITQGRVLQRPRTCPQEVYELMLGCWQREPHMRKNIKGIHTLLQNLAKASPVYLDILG

[27] = target: Dual specificity tyrosine-phosphorylation-regulated kinase 1A (Homo sapiens) (UniProt Q13627); test: Inhibition of human DYRK1A at 100 nM using RRRFRPASPLRGPPK as substrate by [gamma-33P]-ATP assay

Chain of Dual specificity mitogen-activated protein kinase kinase 5 (Homo sapiens) (Q13163 whole entry): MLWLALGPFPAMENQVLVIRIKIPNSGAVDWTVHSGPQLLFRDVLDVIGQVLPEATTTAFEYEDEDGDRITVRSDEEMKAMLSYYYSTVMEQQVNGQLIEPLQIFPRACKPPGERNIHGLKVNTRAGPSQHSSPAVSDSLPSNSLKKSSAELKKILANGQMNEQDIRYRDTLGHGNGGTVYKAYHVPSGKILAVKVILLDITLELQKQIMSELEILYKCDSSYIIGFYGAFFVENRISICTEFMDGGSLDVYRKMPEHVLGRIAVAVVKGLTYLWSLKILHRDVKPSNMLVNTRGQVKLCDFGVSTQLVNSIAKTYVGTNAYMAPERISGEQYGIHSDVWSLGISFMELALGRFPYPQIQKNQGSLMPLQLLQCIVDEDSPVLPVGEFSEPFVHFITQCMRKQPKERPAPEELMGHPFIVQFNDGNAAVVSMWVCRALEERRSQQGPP

COc1ccc(N2C(=O)COc3ccc(-c4cnc(OC)c(NS(=O)(=O)c5ccc(F)cc5)c4)cc32)cc1
inhibition [1]: -1.84%
inhibition [2]: -3.16%
inhibition [3]: 14.4%
inhibition [4]: 22.6%
inhibition [5]: 19.6%
inhibition [6]: 10.7%
inhibition [7]: 3.43%
inhibition [8]: -0.24%
Activity (L02): Non-Toxic
inhibition [9]: 5.88%
inhibition [10]: 4.5%
inhibition [11]: -2.27%
inhibition [12]: -2.26%
inhibition [13]: 12.5%
inhibition [14]: -5.22%
inhibition [15]: 12.8%
inhibition [16]: 10%
inhibition [17]: 11.4%
inhibition [18]: 9.02%
inhibition [19]: -9.98%
Activity [20]: Non-Toxic
inhibition [21]: 1.15%
inhibition [22]: 3.65%
inhibition [23]: 2.2%
inhibition [24]: 5.89%
inhibition [25]: -7.8%
inhibition [26]: -0.11%
inhibition [27]: 5.57%

Reference: ChEMBL document CHEMBL4364276, “Discovery of 4-phenyl-2H-benzo[b][1,4]oxazin-3(4H)-one derivatives as potent and orally active PI3K/mTOR dual inhibitors” (Eur J Med Chem, 2019)
